Where two headings read alike, the source gives them in different places. Values belong to the compound of their own block, whether it stands above or below them.
Tests used:
[1] = biological target: GSK3b (GST-full length GSK3b) (Homo sapiens (Human), UniProt P49841); assay: GSK3b TR-FRET kinase assay; assay type: biochemical
Method in brief: (§1)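 IC50s came from the normalized 665/615 TR-FRET ratio after Tb-anti-pSer641 antibody and streptavidin-d2 detection of phosphorylated biotin-glycogen synthase peptide (200 nM). ATP was 4 μM for GSK3α, 2 μM for GSK3b, or 1 mM; 1 nM enzyme, 100 min, ambient, pH 7.5, after 30-min compound preincubation.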

[2] = biological target: GSK3α (GST-full length GSK3α) (Homo sapiens (Human), UniProt P49840); assay: GSK3α TR-FRET kinase assay; assay type: biochemical
Method in brief: as §1

[3] = 1 nM GSK3b, 2 μM ATP, 30 minute preincubation, Table 16, read-out: GSK3-B TR-FRET BIOCHEMICAL (TR-FRET), IC50
[4] = 1 nM GSK3α, 4 μM ATP, 30 minute preincubation, Table 16, read-out: GSK3-A TR-FRET BIOCHEMICAL (TR-FRET), IC50
[5] = 1 nM GSK3b, 2 μM ATP, 30 minute preincubation, geometric mean, read-out: GSK3-B TR-FRET BIOCHEMICAL (TR-FRET), GMean, IC50
[6] = 1 nM GSK3α, 4 μM ATP, 30 minute preincubation, geometric mean, read-out: GSK3-A TR-FRET BIOCHEMICAL (TR-FRET), GMean, IC50
[7] = 1 nM GSK3b, 2 μM ATP, 30 minute preincubation, read-out: GSK3-B TR-FRET BIOCHEMICAL (TR-FRET), IC50
[8] = GSK3-B (TR-FRET 1 mM ATP), GMean, IC50, 1 mM ATP, geometric mean
[9] = 1 nM GSK3α, 4 μM ATP, 30 minute preincubation, read-out: GSK3-A TR-FRET BIOCHEMICAL (TR-FRET), IC50
[10] = GSK3-A (TR-FRET 1 mM ATP), GMean, IC50, 1 mM ATP, geometric mean
[11] = 1 nM GSK3b, 2 μM ATP, 30 minute preincubation, Table 16, read-out: GSK3-B TR-FRET BIOCHEMICAL (TR-FRET)
[12] = 1 nM GSK3α, 4 μM ATP, 30 minute preincubation, Table 16, read-out: GSK3-A TR-FRET BIOCHEMICAL (TR-FRET)

Sequence of GSK3α (GST-full length GSK3α) (P49840 whole entry): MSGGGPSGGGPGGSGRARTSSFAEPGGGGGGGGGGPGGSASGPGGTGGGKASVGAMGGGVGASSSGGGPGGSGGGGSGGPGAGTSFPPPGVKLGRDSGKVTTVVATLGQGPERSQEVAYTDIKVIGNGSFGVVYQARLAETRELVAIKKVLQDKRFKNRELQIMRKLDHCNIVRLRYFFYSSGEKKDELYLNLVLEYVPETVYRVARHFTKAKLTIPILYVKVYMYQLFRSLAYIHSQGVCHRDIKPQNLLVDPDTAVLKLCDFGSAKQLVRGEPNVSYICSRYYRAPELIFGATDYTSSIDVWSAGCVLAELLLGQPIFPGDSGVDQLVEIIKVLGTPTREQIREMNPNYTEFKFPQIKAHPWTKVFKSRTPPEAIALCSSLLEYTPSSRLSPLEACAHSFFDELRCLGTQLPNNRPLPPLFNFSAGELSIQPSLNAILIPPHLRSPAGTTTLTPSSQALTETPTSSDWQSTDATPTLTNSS
Sequence of GSK3b (GST-full length GSK3b) (P49841 whole entry): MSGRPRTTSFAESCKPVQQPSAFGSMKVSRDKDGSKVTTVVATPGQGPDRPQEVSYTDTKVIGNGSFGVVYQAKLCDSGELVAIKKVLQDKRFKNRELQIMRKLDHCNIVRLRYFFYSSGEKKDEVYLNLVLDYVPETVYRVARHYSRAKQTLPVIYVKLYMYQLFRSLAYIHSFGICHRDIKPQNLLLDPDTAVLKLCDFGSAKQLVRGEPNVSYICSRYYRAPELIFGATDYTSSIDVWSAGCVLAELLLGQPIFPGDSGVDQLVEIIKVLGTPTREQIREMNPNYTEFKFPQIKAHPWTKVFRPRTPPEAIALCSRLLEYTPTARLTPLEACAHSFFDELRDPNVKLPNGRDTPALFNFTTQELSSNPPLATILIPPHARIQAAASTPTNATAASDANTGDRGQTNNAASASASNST

IC50 [1, 3]: 1000 to 5000 nM
IC50 [2, 4]: 1000 to 5000 nM
SMILES: CCC1(COCc2ccccc2)C2=C(CC(C)(C)CC2=O)Nc2n[nH]cc21 (centres unmarked) [Compound 874313]

IC50 [1, 5]: > 5000 nM
IC50 [2, 6]: 1000 to 5000 nM
SMILES: CCC1(c2cccc(-c3ccncc3)c2)C2=C(CC(C)CC2=O)Nc2n[nH]cc21 (centres unmarked) [Compound 874315]

IC50 [1, 5]: 1000 to 5000 nM
IC50 [2, 6]: 100 to 1000 nM
SMILES: CCC1(c2cccc(-c3ccncc3)c2)C2=C(CC(C)CC2=O)Nc2n[nH]cc21 (centres unmarked) [Compound 874316]

IC50 [1, 3]: 1000 to 5000 nM
IC50 [2, 4]: 1000 to 5000 nM
SMILES: C[C@@H]1CCC[C@]12C1=C(CC(C)(C)CC1=O)Nc1n[nH]cc12 [Compound 874319]

IC50 [1, 3]: 1000 to 5000 nM
IC50 [2, 4]: 1000 to 5000 nM
SMILES: C[C@H]1CCC[C@@]12C1=C(CC(C)(C)CC1=O)Nc1n[nH]cc12 [Compound 874320]

IC50 [1, 5]: 1000 to 5000 nM
IC50 [2, 6]: 1000 to 5000 nM
SMILES: CC1(C)CC(=O)C2=C(C1)Nc1n[nH]c(CCC(F)(F)F)c1C21CCc2c(F)cccc21 (centres unmarked) [Compound 874323]

IC50 [1, 7]: ≤ 100 nM
IC50 [1, 8]: 1000 to 5000 nM
IC50 [2, 9]: ≤ 100 nM
IC50 [2, 10]: 100 to 1000 nM
SMILES: CC1(C)CC(=O)C2=C(C1)Nc1n[nH]cc1C21CC2(CCCC2)C1 [Compound 874477]

IC50 [1, 11]: 100 to 1000 nM
IC50 [2, 12]: 100 to 1000 nM
SMILES: CC1(C)CC(=O)C2=C(C1)Nc1n[nH]cc1C21CCC1 [Compound 874509]

IC50 [1, 5]: ≤ 100 nM
IC50 ([1]; read-out: GSK3-B (TR-FRET 1 mM ATP), GMean, IC50, 1 mM ATP, geometric mean): 100 to 1000 nM
IC50 [2, 6]: ≤ 100 nM
IC50 ([2]; read-out: GSK3-A (TR-FRET 1 mM ATP), GMean, IC50, 1 mM ATP, geometric mean): 100 to 1000 nM
SMILES: CCC1(c2ccccc2)C2=C(CC(C)(C)CC2=O)Nc2n[nH]c(C(F)F)c21 (centres unmarked) [Compound 874510]

IC50 [1, 11]: 100 to 1000 nM
IC50 [2, 12]: ≤ 100 nM
SMILES: CC1(C)CC(=O)C2=C(C1)Nc1n[nH]cc1C21CC(C(F)(F)F)C1 (centres unmarked) [Compound 874527]

IC50 [1, 11]: 100 to 1000 nM
IC50 [2, 12]: ≤ 100 nM
SMILES: CC1(C)CC(=O)C2=C(C1)Nc1n[nH]cc1C21CCN(CC(F)(F)F)CC1 [Compound 874528]

IC50 [1, 11]: 1000 to 5000 nM
IC50 [2, 12]: 100 to 1000 nM
SMILES: CC1(C)CC(=O)C2=C(C1)Nc1n[nH]cc1C21CCN(c2ccncn2)CC1 [Compound 874529]

IC50 [1, 11]: ≤ 100 nM
IC50 [1, 8]: 1000 to 5000 nM
IC50 [2, 12]: ≤ 100 nM
IC50 [2, 10]: 100 to 1000 nM
SMILES: CC1(C)CC(=O)C2=C(C1)Nc1n[nH]cc1C21CCN(S(=O)(=O)c2ccccc2)CC1 [Compound 874530]

IC50 [1, 5]: ≤ 100 nM
IC50 [2, 6]: ≤ 100 nM
SMILES: CCC1(c2cccc(-n3ccnc3)c2)C2=C(CC(C)(C)CC2=O)Nc2n[nH]cc21 (centres unmarked) [Compound 874531]

IC50 [1, 11]: ≤ 100 nM
IC50 [2, 12]: ≤ 100 nM
SMILES: C[C@@H]1CCC[C@]2(C1)C1=C(CC(C)(C)CC1=O)Nc1n[nH]cc12 [Compound 874532]

IC50 [1, 5]: > 5000 nM
IC50 [2, 6]: 100 to 1000 nM
SMILES: CCC1(c2cccc(-n3ccnc3)c2)C2=C(CC(C)(C)CC2=O)Nc2n[nH]cc21 (centres unmarked) [Compound 874533]

IC50 [1, 7]: ≤ 100 nM
IC50 [1, 8]: 100 to 1000 nM
IC50 [2, 9]: ≤ 100 nM
IC50 [2, 10]: 100 to 1000 nM
SMILES: CC1(C)CC(=O)C2=C(C1)Nc1n[nH]cc1C21CC2(CCOCC2)C1 [Compound 874534]

IC50 [1, 11]: ≤ 100 nM
IC50 [2, 12]: ≤ 100 nM
SMILES: CC1(C)CC(=O)C2=C(C1)Nc1n[nH]cc1[C@]21CCCOCC1 [Compound 874535]

IC50 [1, 3]: 1000 to 5000 nM
IC50 [2, 4]: 100 to 1000 nM
SMILES: CC1(C)CC(=O)C2=C(C1)Nc1n[nH]cc1[C@@]21CCCOCC1 [Compound 874536]

IC50 [1, 11]: 100 to 1000 nM
IC50 [2, 12]: 100 to 1000 nM
SMILES: C[C@@H]1CCC[C@@]2(C1)C1=C(CC(C)(C)CC1=O)Nc1n[nH]cc12 [Compound 874537]

IC50 [1, 5]: > 5000 nM
IC50 [2, 6]: 1000 to 5000 nM
SMILES: CC[C@@]1(c2cccc(N(C)c3ccccn3)c2)C2=C(CC(C)(C)CC2=O)Nc2n[nH]cc21 [Compound 875608]

IC50 [1, 3]: > 5000 nM
IC50 [2, 4]: > 5000 nM
SMILES: Cc1[nH]nc2c1C1(CCCCC1)C1=C(CC(C)(C)CC1=O)N2 [Compound 877288]

IC50 [1, 3]: > 5000 nM
IC50 [2, 4]: > 5000 nM
SMILES: CCC1(CC)C2=C(CC(C)(C)CC2=O)Nc2n[nH]c(C3CC3)c21 [Compound 877294]

IC50 [1, 7]: > 5000 nM
IC50 [2, 9]: > 5000 nM
SMILES: Cc1[nH]nc2c1C1(CC3(CCC3)C1)C1=C(CC(C)(C)CC1=O)N2 [Compound 877295]

IC50 [1, 5]: ≤ 100 nM
IC50 [2, 6]: ≤ 100 nM
SMILES: CCC1(c2cccc(N3CCCCC3)c2)C2=C(CC(C)(C)CC2=O)Nc2n[nH]c(C)c21 (centres unmarked) [Compound 877311]

IC50 [1, 11]: 100 to 1000 nM
IC50 [2, 12]: 100 to 1000 nM
SMILES: CC1(C)CC(=O)C2=C(C1)Nc1n[nH]cc1[C@]21CCOC1 [Compound 877313]

IC50 [1, 3]: 1000 to 5000 nM
IC50 [2, 4]: 100 to 1000 nM
SMILES: CC1(C)CC(=O)C2=C(C1)Nc1n[nH]cc1[C@@]21CCOC1 [Compound 877314]
